Assay results as given in ChEMBL document CHEMBL1121562, “2-Methylanthraquinone derivatives as potential bioreductive alkylating agents” (1980).

Experiments:
EMT6 [1] = assay: Compound is measured for surviving fractions of EMT6 tumor cells treated in culture with (0.50 uM) concentration for 1 hr under aerobic condition.; format: functional; details: Mus musculus, EMT6, 1 h; read-out: ED50 (the source's name)
EMT6 [2] = assay: Compound is measured for surviving fractions of EMT6 tumor cells treated in culture with (0.50 uM) concentration for 1 hr under hypoxic condition.; format: functional; details: Mus musculus, EMT6, 1 h; read-out: ED50 (the source's name)
[3] = Ratio of toxicity in areobic conditions to hypoxic condition of EMT6 cells; format: functional
EMT6 [4] = assay: Maximum effective concentration against EMT6 tumor cells uncer aerobic conditions; format: functional, cell-based; details: Mus musculus
EMT6 [5] = assay: Percentage of EMT6 tumor cells under hypoxic condition were killed when exposed to 10 uM concentration of the compound; format: functional, Mus musculus

## O=C1c2ccccc2C(=O)c2cc(CO)ccc21
EMT6 [1]
  EC50: 348 µM
EMT6 [2]
  EC50: 2.5 µM
[3]
  Ratio: 139

## COc1cccc2c1C(=O)c1c(O)c3c(c(O)c1C2=O)C[C@@](O)(C(=O)CO)C[C@@H]3O[C@H]1C[C@H](N)[C@H](O)[C@H](C)O1 [DOXORUBICIN]
EMT6 [1]
  EC50: 0.012 µM
EMT6 [2]
  EC50: < 0.0001 µM
[3]
  Ratio: >120

## Cc1ccc2c(c1)C(=O)c1ccccc1C2=O [TECTOQUINONE]
EMT6 [1]
  EC50: 1.7 µM
EMT6 [2]
  EC50: 0.54 µM
[3]
  Ratio: 3.2

## CNC(=O)OCc1ccc2c(c1)C(=O)c1ccccc1C2=O
EMT6 [4]
  Concentration: 100 µM
EMT6 [1]
  EC50: 8.1 µM
EMT6 [2]
  EC50: 0.27 µM
[3]
  Ratio: 30

## CO[C@@]12[C@H](COC(N)=O)C3=C(C(=O)C(C)=C(N)C3=O)N1C[C@@H]1N[C@@H]12 [MITOMYCIN]
EMT6 [1]
  EC50: 0.7 µM
EMT6 [2]
  EC50: 0.001 µM
[3]
  Ratio: 700

## CS(=O)(=O)OCc1ccc2c(c1)C(=O)c1ccccc1C2=O
EMT6 [1]
  EC50: 180 µM
EMT6 [2]
  EC50: 69.6 µM
[3]
  Ratio: 2.6

## Cc1ccc(S(=O)(=O)OCc2ccc3c(c2)C(=O)c2ccccc2C3=O)cc1
EMT6 [5]
  Inhibition: 50%
EMT6 [1]
  EC50: > 1000 µM
EMT6 [2]
  EC50: 9 µM
[3]
  Ratio: >111

## CC(=O)OCc1ccc2c(c1)C(=O)c1ccccc1C2=O
EMT6 [1]
  EC50: 3.6 µM
EMT6 [2]
  EC50: 9 µM
[3]
  Ratio: 0.4

## COCc1ccc2c(c1)C(=O)c1ccccc1C2=O
EMT6 [1]
  EC50: 30 µM
EMT6 [2]
  EC50: 0.6 µM
[3]
  Ratio: 50

## O=C1c2ccccc2C(=O)c2cc(CCl)ccc21
EMT6 [1]
  EC50: 0.31 µM
EMT6 [2]
  EC50: < 0.012 µM
[3]
  Ratio: >26
